Data reported in patent publication US20260285888A1, “HETEROCYCLIC COMPOUND AND USE THEREOF” (OTSUKA PHARMACEUTICAL CO., LTD., priority 2023, published 2026).

Legend:
[1] = Study for confirmation of conversion to brexpiprazole in a buffer (stability of the evaluation compounds); type: physicochemical; conditions: in buffer, average of duplicate; for Concentration of brexpiprazole formed: 60-minute reaction sample; for Concentration of evaluation compound decreased: decrease in 60-minute vs 0-minute reaction sample
Outline: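 Compounds (final 1 μmol/L, from 100 μmol/L working solutions) incubated in buffer at 37° C. for 0 or 60 min, in duplicate, after 3 min pre-incubation of the reaction solution. Reactions stopped with acetonitrile/isopropanol (4:1) containing internal standards; compound and formed brexpiprazole quantified against 0.01–1 μmol/L calibration samples.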

in vitro = type: cell-based, human; conditions: human, differentiated hl-60 cells, 300 μmol/L, about 24 hours, PMA-differentiated HL-60 cells, LDH; no-treatment 0%, cell lysis buffer 100%; read-out: cytotoxicity (%) Evaluation compound results
Experimental: An HL-60 cell line (human acute promyelocytic leukemia cells) was successively cultured in RPMI 1640 containing 20% fetal bovine serum (FBS) at 37° C. in 95% atmosphere/5% CO2. Before evaluation, the cells were pre-cultured for about 72 hours in the presence of 10 nM phorbol 12-myristate 13-acetate (PMA) to induce macrophage-like differentiation.
Evaluation compounds were dissolved in DMSO to obtain 30 mmol/L solutions (or suspensions). Each DMSO solution was diluted 100-fold with RPMI 1640 containing 2% FBS (final concentration of the compound: 300 μmol/L) to obtain a treatment solution. The culture supernatant of the differentiated HL-60 cells was removed, and each treatment solution was added and cultured for about 24 hours, followed by cytotoxicity evaluation.
The activity of lactate dehydrogenase (LDH) was measured in the treatment solutions exposed to the cells for about 24 hours by using a commercial kit (Cytotoxicity LDH Assay Kit-WST, Dojindo Laboratories) and a plate reader (Tecan Infinite M1000). The obtained measurement values were used to calculate cytotoxicity (%) as comparison values for each evaluation compound-treated group, with the no-treatment group taken as 0% and the cell lysis buffer-treated group taken as 100%. The test was conducted in triplicate in three wells each, and the average values were used as adopted values.

SMILES	Concentration of brexpiprazole formed [1] [nM]	Concentration of evaluation compound decreased [1] [nM]	cytotoxicity at 24 h, 300 µM (in vitro) [%]
O=c1ccc2ccc(OCCCC[N+]3(COP(=O)([O-])OCC4CC4)CCN(c4cccc5sccc45)CC3)cc2[nH]1 [EX 91, (4-(benzo[b]thiophen-4-yl)-1-(4-((2-oxo-1,2-dihydroquinolin-7-yl)oxy)butyl)piperazin-1-ium-1-yl)methyl (cyclopropylmethyl) phosphate]	0	120	17
O=c1ccc2ccc(OCCCC[N+]3(COP(=O)([O-])OCCCCO)CCN(c4cccc5sccc45)CC3)cc2[nH]1 [EX 10, (4-(benzo[b]thiophen-4-yl)-1-(4-((2-oxo-1,2-dihydroquinolin-7-yl)oxy)butyl)piperazin-1-ium-1-yl)methyl (4-hydroxybutyl) phosphate]	0	-20	-6
COCCCCOC(=O)OCOP(=O)([O-])OC[N+]1(CCCCOc2ccc3ccc(=O)[nH]c3c2)CCN(c2cccc3sccc23)CC1 [EX 36, (4-(benzo[b]thiophen-4-yl)-1-(4-((2-oxo-1,2-dihydroquinolin-7-yl)oxy)butyl)piperazin-1-ium-1-yl)methyl ((((4-methoxybutoxy)carbonyl)oxy)methyl) phosphate]	0	-40	-10
O=C(OCOP(=O)([O-])OC[N+]1(CCCCOc2ccc3ccc(=O)[nH]c3c2)CCN(c2cccc3sccc23)CC1)C1CCOCC1 [EX 127, (4-(benzo[b]thiophen-4-yl)-1-(4-((2-oxo-1,2-dihydroquinolin-7-yl)oxy)butyl)piperazin-1-ium-1-yl)methyl (((tetrahydro-2H-pyran-4-carbonyl)oxy)methyl) phosphate]	0	40	0
O=c1ccc2ccc(OCCCC[N+]3(COP(=O)([O-])OCCN4CCC(F)(F)CC4)CCN(c4cccc5sccc45)CC3)cc2[nH]1 [EX 119, (4-(benzo[b]thiophen-4-yl)-1-(4-((2-oxo-1,2-dihydroquinolin-7-yl)oxy)butyl)piperazin-1-ium-1-yl)methyl (2-(4,4-difluoropiperidin-1-yl)ethyl) phosphate]	0	140	2
CSCCCOP(=O)([O-])OC[N+]1(CCCCOc2ccc3ccc(=O)[nH]c3c2)CCN(c2cccc3sccc23)CC1 [EX 66, (4-(benzo[b]thiophen-4-yl)-1-(4-((2-oxo-1,2-dihydroquinolin-7-yl)oxy)butyl)piperazin-1-ium-1-yl)methyl (3-(methylthio)propyl) phosphate]	0	170	-2
O=c1ccc2ccc(OCCCC[N+]3(COP(=O)([O-])OCCCCCCCCO)CCN(c4cccc5sccc45)CC3)cc2[nH]1 [EX 11, (4-(benzo[b]thiophen-4-yl)-1-(4-((2-oxo-1,2-dihydroquinolin-7-yl)oxy)butyl)piperazin-1-ium-1-yl)methyl (8-hydroxyoctyl) phosphate]	0	30	16
O=C(CCO)OCOP(=O)([O-])OC[N+]1(CCCCOc2ccc3ccc(=O)[nH]c3c2)CCN(c2cccc3sccc23)CC1 [EX 125, (4-(benzo[b]thiophen-4-yl)-1-(4-((2-oxo-1,2-dihydroquinolin-7-yl)oxy)butyl)piperazin-1-ium-1-yl)methyl (((3-hydroxypropanoyl)oxy)methyl) phosphate]	0	130	-7
